From patent publication US11014888B2, “Crystalline form of alkynyl pyridine prolyl hydroxylase inhibitor and method for preparing same” (JIANGSU HENGRUI MEDICINE CO., LTD., priority 2017, dated 2021)

Legend:
prolyl hydroxylase = conditions: as disclosed in WO2017059623; cited from earlier work
[1] = Physical stability test (XRPD) of crystal forms under different placement conditions; format: physicochemical; conditions: for Physical stability, conclusion from Table 7: C, D, H changed after one week, A, B, I did not change after one month; for Physical stability (XRPD): 1 week
Experimental: Physical stability test was carried out on the samples of crystal forms A, B, C, D, H and I under different placement conditions. The placement conditions were:
1. 40° C., humidity 75%, open/sealed;
2. 25° C., humidity 60%, open; and […]

[2] = XRPD comparison of crystal forms before and after the DVS test; format: physicochemical; conditions: for Crystal form change before and after the DVS test (XRPD): 25° C., water, 50%-95%-0%-95%-50% RH; for Stability / sensitivity to humidity: conclusion from XRPD before and after DVS test
Experimental: XRPD test was carried out on the samples of crystal forms A, B and I after the DVS test, and the XRPD results of each crystal form before and after the DVS test were compared.
DVS instrument parameters:
Maximum step size: 360 minutes

[3] = XRPD comparison of crystal forms before and after DSC heating; format: physicochemical
Experimental: XRPD test was carried out on the samples of crystal forms A, B and I after the DSC test.

[4] = XRPD after standing at 0% humidity for 10 days; format: physicochemical
Text: The samples of crystal forms A and B were left to stand under the condition of 0% humidity for 10 days, and subjected to XRPD to investigate the stability of the crystal form under the low humidity condition.

[5] = Chemical stability under different humidity conditions, impurity content by HPLC; format: physicochemical; conditions: for Total impurity content (%): HPLC; for Impurity content level / Change of impurity content under various conditions: conclusion from Table 8; for Change of impurity content under various conditions: humidity 0%, 75%, 92.5% (25° C.), up to 30 days
Experimental: The samples of crystal forms A, B and I were left to stand under different humidity conditions to test their chemical stability. The impurity content was determined by HPLC (HPLC detection conditions: ZORBAX SB-C18 4.6*150 mm 3.5 μm, mobile phase: TFA/methanol/water, detection wavelength: 223 nm).

[6] = Chemical stability under different placement conditions; format: physicochemical; conditions: 40° C., humidity 75%, open/sealed, 25° C., humidity 60%, or 2-6° C.
[7] = Humidity 92.5% (25° C.), 5 days
[8] = Humidity 92.5% (25° C.), 10 days
[9] = Humidity 92.5% (25° C.), 30 days

## O=C(O)CNC(=O)c1ncc(C#CCOc2ccc(Cl)cc2)cc1O [compound of formula (I), 2-(3-hydroxy-5-(3-p-chlorophenoxypropyn-1-yl))picolinamido acetic acid]
Prolyl hydroxylase
  Inhibition effect on prolyl hydroxylase: excellent inhibition effect

## O=C(O)CNC(=O)c1ncc(C#CCOc2ccc(Cl)cc2)cc1O [crystal form A, 2-(3-hydroxy-5-(3-p-chlorophenoxypropyn-1-yl))picolinamido acetic acid]
[1]
  Physical stability, conclusion from Table 7: good physical stability
[2]
  Crystal form change before and after the DVS test (XRPD): did not change, but the crystallinity thereof decreased
[3]; after heating to 105° C.
  Crystal form change after DSC heating (XRPD): changed
[4]
  Crystal form change under low humidity (XRPD): changed
[5]; Day 0
  Total impurity content (%): 1.88%
[5]; Humidity 0% (25° C.), 5 days
  Total impurity content (%): 1.89%
[5]; Humidity 0% (25° C.), 10 days
  Total impurity content (%): 2.00%
[5]; Humidity 0% (25° C.), 30 days
  Total impurity content (%): 2.14%
[5]; Humidity 75% (25° C.), 5 days
  Total impurity content (%): 1.92%
[5]; Humidity 75% (25° C.), 10 days
  Total impurity content (%): 1.97%
[5]; Humidity 75% (25° C.), 30 days
  Total impurity content (%): 2.17%
[5]; [7]
  Total impurity content (%): 1.96%
[5]; [8]
  Total impurity content (%): 1.99%
[5]; [9]
  Total impurity content (%): 2.05%
[5]
  Impurity content level: relatively high impurity content
  Change of impurity content under various conditions: changed significantly

## O=C(O)CNC(=O)c1ncc(C#CCOc2ccc(Cl)cc2)cc1O [crystal form B, 2-(3-hydroxy-5-(3-p-chlorophenoxypropyn-1-yl))picolinamido acetic acid]
[1]
  Physical stability, conclusion from Table 7: good physical stability
[2]
  Crystal form change before and after the DVS test (XRPD): did not change
  Stability / sensitivity to humidity: most stable to humidity
[3]; after heating to 135° C.
  Crystal form change after DSC heating (XRPD): did not change
[4]
  Crystal form change under low humidity (XRPD): did not change
[5]; Day 0
  Total impurity content (%): 0.95%
[5]; Humidity 0% (25° C.), 5 days
  Total impurity content (%): 0.97%
[5]; Humidity 0% (25° C.), 10 days
  Total impurity content (%): 1.03%
[5]; Humidity 0% (25° C.), 30 days
  Total impurity content (%): 1.09%
[5]; Humidity 75% (25° C.), 5 days
  Total impurity content (%): 0.94%
[5]; Humidity 75% (25° C.), 10 days
  Total impurity content (%): 0.98%
[5]; Humidity 75% (25° C.), 30 days
  Total impurity content (%): 1.06%
[5]; [7]
  Total impurity content (%): 0.98%
[5]; [8]
  Total impurity content (%): 0.98%
[5]; [9]
  Total impurity content (%): 1.02%
[5]
  Impurity content level: low impurity content
  Change of impurity content under various conditions: substantially did not increase
[6]
  Chemical stability under different placement conditions: excellent chemical stability

## O=C(O)CNC(=O)c1ncc(C#CCOc2ccc(Cl)cc2)cc1O [crystal form C, 2-(3-hydroxy-5-(3-p-chlorophenoxypropyn-1-yl))picolinamido acetic acid]
[1]; 4° C. sealed
  Physical stability (XRPD): x (x means that the crystal form changed)
[1]; 25° C. open (humidity 60%)
  Physical stability (XRPD): x (x means that the crystal form changed)
[1]; 40° C. open (humidity 75%)
  Physical stability (XRPD): x (x means that the crystal form changed)
[1]; 40° C. sealed (humidity 75%)
  Physical stability (XRPD): x (x means that the crystal form changed)
[1]
  Physical stability, conclusion from Table 7: poor physical stability

## O=C(O)CNC(=O)c1ncc(C#CCOc2ccc(Cl)cc2)cc1O [crystal form D, 2-(3-hydroxy-5-(3-p-chlorophenoxypropyn-1-yl))picolinamido acetic acid]
[1]; 4° C. sealed
  Physical stability (XRPD): x (x means that the crystal form changed)
[1]; 25° C. open (humidity 60%)
  Physical stability (XRPD): x (x means that the crystal form changed)
[1]; 40° C. open (humidity 75%)
  Physical stability (XRPD): x (x means that the crystal form changed)
[1]; 40° C. sealed (humidity 75%)
  Physical stability (XRPD): x (x means that the crystal form changed)
[1]
  Physical stability, conclusion from Table 7: poor physical stability

## O=C(O)CNC(=O)c1ncc(C#CCOc2ccc(Cl)cc2)cc1O [crystal form H, 2-(3-hydroxy-5-(3-p-chlorophenoxypropyn-1-yl))picolinamido acetic acid]
[1]; 40° C. open (humidity 75%)
  Physical stability (XRPD): x (x means that the crystal form changed)
[1]
  Physical stability, conclusion from Table 7: poor physical stability

## O=C(O)CNC(=O)c1ncc(C#CCOc2ccc(Cl)cc2)cc1O [crystal form I, 2-(3-hydroxy-5-(3-p-chlorophenoxypropyn-1-yl))picolinamido acetic acid]
[1]
  Physical stability, conclusion from Table 7: good physical stability
[2]
  Crystal form change before and after the DVS test (XRPD): changed
  Stability / sensitivity to humidity: most sensitive to humidity
[3]; after heating to 105° C.
  Crystal form change after DSC heating (XRPD): changed
[5]; Day 0
  Total impurity content (%): 1.56%
[5]; Humidity 0% (25° C.), 5 days
  Total impurity content (%): 1.57%
[5]; Humidity 0% (25° C.), 10 days
  Total impurity content (%): 1.58%
[5]; Humidity 0% (25° C.), 30 days
  Total impurity content (%): 2.06%
[5]; Humidity 75% (25° C.), 5 days
  Total impurity content (%): 1.72%
[5]; Humidity 75% (25° C.), 10 days
  Total impurity content (%): 1.78%
[5]; Humidity 75% (25° C.), 30 days
  Total impurity content (%): 1.88%
[5]; [7]
  Total impurity content (%): 1.90%
[5]; [8]
  Total impurity content (%): 2.24%
[5]; [9]
  Total impurity content (%): 2.22%
[5]
  Impurity content level: relatively high impurity content
  Change of impurity content under various conditions: changed significantly
